Results published in US20070093520A1, “Method of treatment of diarrhea-predominant irritable bowel syndrome in a subject” (priority 2005, published 2007).
Where two headings read alike, the source gives them in different places.

Test system: diarrhea-predominant IBS subjects
Format: in vivo, human
Settings: for TEAE incidence: constipation / TEAE incidence: nausea: 3007 Study
Experimental: The study was performed in approximately 150 study centers. Approximately 1600 eligible subjects were to be given cilansetron 2 mg TID. At Visit 1, pre-treatment assessments were conducted. […] Subjects were to return to the study site one month later for Visit 3 (Day 31) for their first interim assessment. […] All subjects who discontinued from the study were to have the same post-study assessments required at Visit 7 performed at their early termination visit. […]
Stool specimens were analyzed at every visit for occult blood. An independent GERB had been established to provide advice on GI AEs during the course of the study.
Adverse events were assessed at Baseline, at each clinic visit, and at the end of the study (Month 12 or the early termination visit). All AEs, which occurred during the study were followed up in accordance with good medical practice until resolved or judged no longer clinically significant, or if a condition was chronic, until fully characterized. Adverse events could occur in the specified follow-up period and, regardless of the interval since the last administration of the study medication, were treated in the same manner as an AE which occurred during the treatment with study medication. Each AE was evaluated for duration, severity, seriousness, and causal relationship to the investigational drug. The action taken and the outcome were also recorded.
Specifically, subjects who were lost to follow-up and had no post-Baseline contact with the site were excluded from the Safety population. The subjects who discontinued from the study due to lost to follow-up were identified based on the information collected on the study termination CRF page.
After the pretreatment assessment at Visit 1 (Days […] to −3), subjects were to return to the study site for a Baseline assessment and start the treatment at Visit 2 (Day 1).
For the by time-interval analyses of disposition, prevalence of AEs, and of markedly abnormal and predefined changes in laboratory values, vital signs, and ECGs, the following interval windows were used:
Adverse events that were already present prior to the first dose of cilansetron study medication but increased in severity afterwards were considered as treatment-emergent.
The 5% cutoff point was based on the incidence within higher level terms.
Subjects were counted at most once for each primary system organ class and preferred term. Serious AEs that resolved prior to receiving study medication or occurred more than 30 days after the last dose of study medication were not included in the incidence tables. A listing of all SAEs is presented; SAEs with onset prior to receiving study medication or more than 30 days after discontinuation of study medication were flagged. The listing presents lower level term and preferred term of the SAE, severity, action taken, outcome, and relationship of the SAE, start and stop date of the SAE, study day of onset of the SAE, age, race, and sex.

[1] = 2 mg, Safety Population, 3008, under Neoplasms Benign, Malignant and Unspecified
[2] = 2 mg, Safety Population, 3008, under Pregnancy, Puerperium and Perinatal Conditions
[3] = 2 mg, Safety Population, 3008, under Social Circumstances
[4] = 2 mg, Safety Population, 3008, under Surgical and Medical Procedures
[5] = 2 mg, Safety Population, 3008, under Vascular Disorders

## Cc1nccn1C[C@H]1CCc2c(c3cccc4c3n2CCC4)C1=O [cilansetron, (R)-(−)-4,5,6,8,9,10-hexahydro-10-[(2-methyl-1H-imidazol-1-yl)methyl]-11H-pyrido-[3,2,1-jk]-carbazol-11-one]
[1]
  TEAE incidence: Haemangioma of Liver: 2 (<1%) n (%)
  TEAE incidence: Hepatobiliary Neoplasms Benign: 2 (<1%) n (%)
  TEAE incidence: Large Cell Carcinoma of the Respiratory Tract Stage Unspecified: 1 (<1%) n (%)
  TEAE incidence: Lip and Oral Cavity Neoplasms Benign: 1 (<1%) n (%)
  TEAE incidence: Lipoma NOS: 2 (<1%) n (%)
  TEAE incidence: Lung Adenocarcinoma NOS: 1 (<1%) n (%)
  TEAE incidence: Non-Hodgkin's Lymphoma NOS: 1 (<1%) n (%)
  TEAE incidence: Non-Hodgkin's Lymphomas NEC: 1 (<1%) n (%)
  TEAE incidence: Non-Small Cell Neoplasms Malignant of the Respiratory Tract Cell Type Specified: 2 (<1%) n (%)
  TEAE incidence: Pancreatic Carcinoma NOS: 1 (<1%) n (%)
  TEAE incidence: Pancreatic Neoplasms Malignant (Excl Islet Cell and Carcinoid): 1 (<1%) n (%)
  TEAE incidence: Rectal Cancer NOS: 1 (<1%) n (%)
  TEAE incidence: Rectal Neoplasms Malignant: 1 (<1%) n (%)
  TEAE incidence: Salivary Gland Adenoma: 1 (<1%) n (%)
  TEAE incidence: Soft Tissue Neoplasms Benign NEC: 2 (<1%) n (%)
  TEAE incidence: Urinary Tract Neoplasms Benign: 1 (<1%) n (%)
  TEAE incidence: Urinary Tract Neoplasms Unspecified Malignancy NEC: 1 (<1%) n (%)
  TEAE incidence: Uterine Fibroids*: 3 (<1%) n (%)
  TEAE incidence: Uterine Neoplasms Benign*: 3 (<1%) n (%)
[2]
  TEAE incidence: Normal Pregnancy, Labour and Delivery*: 2 (<1%) n (%)
  TEAE incidence: Pregnancy NOS*: 2 (<1%) n (%)
2 mg, Safety Population, 3008, under Reproductive Tract Disorders NEC (Excl Neoplasms)
  TEAE incidence: Genital Haemorrhage NOS: 1 (<1%) n (%)
[3]
  TEAE incidence: Age Related Issues: 3 (<1%) n (%)
  TEAE incidence: Menopause*: 3 (<1%) n (%)
[4]
  TEAE incidence: Bone Therapeutic Procedures NEC: 1 (<1%) n (%)
  TEAE incidence: Fallopian Tube Therapeutic Procedures*: 1 (<1%) n (%)
  TEAE incidence: Osteosynthesis: 1 (<1%) n (%)
  TEAE incidence: Tubal Ligation*: 1 (<1%) n (%)
[5]
  TEAE incidence: Bruising, Ecchymosis and Purpura: 1 (<1%) n (%)
  TEAE incidence: Circulatory Collapse and Shock: 1 (<1%) n (%)
  TEAE incidence: Essential Hypertension: 1 (<1%) n (%)
  TEAE incidence: Hypertension Aggravated: 4 (<1%) n (%)
  TEAE incidence: Hypertension NOS: 15 (1%) n (%)
  TEAE incidence: Non-Site Specific Vascular Disorders NEC: 1 (<1%) n (%)
  TEAE incidence: Orthostatic Hypotension: 3 (<1%) n (%)
  TEAE incidence: Peripheral Embolism and Thrombosis: 1 (<1%) n (%)
  TEAE incidence: Periphlebitis: 1 (<1%) n (%)
  TEAE incidence: Petechiae: 1 (<1%) n (%)
  TEAE incidence: Phlebitis NEC: 4 (<1%) n (%)
  TEAE incidence: Phlebitis NOS: 2 (<1%) n (%)
  TEAE incidence: Phlebitis Superficial: 1 (<1%) n (%)
  TEAE incidence: Shock: 1 (<1%) n (%)
  TEAE incidence: Varicose Veins NOS: 1 (<1%) n (%)
  TEAE incidence: Varicose Veins Non-Site Specific: 1 (<1%) n (%)
  TEAE incidence: Vascular Disorder NOS: 1 (<1%) n (%)
  TEAE incidence: Vascular Hypertensive Disorders NEC: 20 (1%) n (%)
  TEAE incidence: Vascular Hypotensive Disorders: 3 (<1%) n (%)
  TEAE incidence: Venous Thrombosis Deep Limb: 1 (<1%) n (%)
All subjects
  TEAE incidence: constipation: 15%
  TEAE incidence: nausea: 5%
females
  TEAE incidence: constipation: 19%
  TEAE incidence: nausea: 7%
males
  TEAE incidence: constipation: 11%
  TEAE incidence: nausea: 3%
Cilansetron 2 mg, N=1454
  TEAE incidence: Abdominal Discomfort: 6 (<1%) n (%)
  TEAE incidence: Abdominal Distension: 57 (4%) n (%)
  TEAE incidence: Abdominal Findings Abnormal: 2 (<1%) n (%)
  TEAE incidence: Abdominal Hernias, Site Unspecified: 1 (<1%) n (%)
  TEAE incidence: Abdominal Pain Aggravated: 8 (<1%) n (%)
  TEAE incidence: Abdominal Pain Lower: 21 (1%) n (%)
  TEAE incidence: Abdominal Pain Upper: 50 (3%) n (%)
  TEAE incidence: Abdominal Rigidity: 1 (<1%) n (%)
  TEAE incidence: Abnormal Sleep-Related Events: 1 (<1%) n (%)
  TEAE incidence: Abscess Limb: 1 (<1%) n (%)
  TEAE incidence: Abscess NOS: 1 (<1%) n (%)
  TEAE incidence: Absence Seizures: 1 (<1%) n (%)
  TEAE incidence: Acute and Chronic Pancreatitis: 1 (<1%) n (%)
  TEAE incidence: Aerophagia: 1 (<1%) n (%)
  TEAE incidence: Alanine Aminotransferase Increased: 19 (1%) n (%)
  TEAE incidence: Anal Abscess: 1 (<1%) n (%)
  TEAE incidence: Anal Discomfort: 3 (<1%) n (%)
  TEAE incidence: Anal Fissure: 5 (<1%) n (%)
  TEAE incidence: Anal Haemorrhage: 2 (<1%) n (%)
  TEAE incidence: Anal Ulcer: 1 (<1%) n (%)
  TEAE incidence: Anal and Colorectal Neoplasms NEC: 1 (<1%) n (%)
  TEAE incidence: Anal and Rectal Disorders NEC: 8 (<1%) n (%)
  TEAE incidence: Anal and Rectal Pains: 7 (<1%) n (%)
  TEAE incidence: Anal and Rectal Signs and Symptoms: 7 (<1%) n (%)
  TEAE incidence: Anal and Rectal Ulcers and Perforation: 2 (<1%) n (%)
  TEAE incidence: Antibiotic Associated Colitis: 1 (<1%) n (%)
  TEAE incidence: Aphthous Stomatitis: 1 (<1%) n (%)
  TEAE incidence: Appendiceal Abscess: 1 (<1%) n (%)
  TEAE incidence: Appendicitis: 1 (<1%) n (%)
  TEAE incidence: Arterial Pressure NOS Increased: 1 (<1%) n (%)
  TEAE incidence: Aspartate Aminotransferase Increased: 16 (1%) n (%)
  TEAE incidence: Benign Oral Cavity Neoplasms: 1 (<1%) n (%)
  TEAE incidence: Bilirubin Urine: 1 (<1%) n (%)
  TEAE incidence: Blood Alkaline Phosphatase NOS Increased: 7 (<1%) n (%)
  TEAE incidence: Blood Bilirubin Increased: 5 (<1%) n (%)
  TEAE incidence: Blood Bilirubin Unconjugated Increased: 1 (<1%) n (%)
  TEAE incidence: Blood Cholesterol Increased: 25 (2%) n (%)
  TEAE incidence: Blood Creatine Phosphokinase Increased: 31 (2%) n (%)
  TEAE incidence: Blood Creatinine Increased: 1 (<1%) n (%)
  TEAE incidence: Blood Glucose Increased: 2 (<1%) n (%)
  TEAE incidence: Blood Potassium Increased: 3 (<1%) n (%)
  TEAE incidence: Blood Pressure: 1 (<1%) n (%)
  TEAE incidence: Blood Pressure Increased: 5 (<1%) n (%)
  TEAE incidence: Blood Thyroid Stimulating Hormone Increased: 2 (<1%) n (%)
  TEAE incidence: Blood Triglycerides Increased: 11 (<1%) n (%)
  TEAE incidence: Blood Urea Increased: 2 (<1%) n (%)
  TEAE incidence: Blood Uric Acid Increased: 7 (<1%) n (%)
  TEAE incidence: Blood Urine Present: 11 (<1%) n (%)
  TEAE incidence: Blood in Stool: 13 (<1%) n (%)
  TEAE incidence: Body Temperature Decreased: 2 (<1%) n (%)
  TEAE incidence: Body Temperature Increased: 5 (<1%) n (%)
  TEAE incidence: Body Tinea: 2 (<1%) n (%)
  TEAE incidence: Bowel Sounds Abnormal: 1 (<1%) n (%)
  TEAE incidence: Bronchitis Acute NOS: 24 (2%) n (%)
  TEAE incidence: Bronchitis Chronic NOS: 2 (<1%) n (%)
  TEAE incidence: Bronchitis NOS: 27 (2%) n (%)
  TEAE incidence: Bronchopneumonia NOS: 1 (<1%) n (%)
  TEAE incidence: Burning Sensation NOS: 1 (<1%) n (%)
  TEAE incidence: Campylobacter Gastroenteritis: 1 (<1%) n (%)
